Test results reported in patent US20240368121A1, “ESTROGEN RECEPTOR DEGRADERS, PHARMACEUTICAL COMPOSITIONS THEREOF, AND THEIR THERAPEUTIC APPLICATIONS” (BioTheryX, Inc., priority 2021, published 2024).
pIC50: −log10 of the molar value.

Tests used:
MCF7 cells = assay: Cell viability assay ([…]-GLO, 6-day treatment); format: cell-based; conditions: Homo sapiens, MCF7, 144 h; MCF-7 cells, 6 days, CTG; read-out: Inhibition of Cancerous Cells IC50 MCF-7
Protocol: A compound provided herein was evaluated for its anticancer activity in MCF7 and T47D cells. MCF7 and T47D cells were cultured at 37° C. in a humidified 5% C02 environment in MEM or RPMI, supplemented with 10% FBS with insulin, respectively. The cells were plated in 384-well microplates at a density of 1,000 cells per well in their respective maintenance media. The cells were treated with the compound by a 10-point dose response curve for 6 days, during which, the medium and compound were refreshed once. After the 6-day treatment, the cell viability was assessed using […]-GLO (CTG) reagent. Luminescence was measured with a microplate reader.

ERα = target: T1, ERα (Homo sapiens, UniProt P03372); assay: Protein degradation assay: ERα in MCF-7 cells via western blot; format: cell-based; conditions: 6 h; for ERα Protein Degradation 1 nM: 1 nM compound; for ERα Protein Degradation 10 nM: 10 nM compound; for ERα Protein Degradation 100 nM: 100 nM compound
T1 construct: degrading an ERα in MCF-7 cells via a western blot; endogenous in cells; host or cells: MCF-7
T1 sequence (P03372 1-595): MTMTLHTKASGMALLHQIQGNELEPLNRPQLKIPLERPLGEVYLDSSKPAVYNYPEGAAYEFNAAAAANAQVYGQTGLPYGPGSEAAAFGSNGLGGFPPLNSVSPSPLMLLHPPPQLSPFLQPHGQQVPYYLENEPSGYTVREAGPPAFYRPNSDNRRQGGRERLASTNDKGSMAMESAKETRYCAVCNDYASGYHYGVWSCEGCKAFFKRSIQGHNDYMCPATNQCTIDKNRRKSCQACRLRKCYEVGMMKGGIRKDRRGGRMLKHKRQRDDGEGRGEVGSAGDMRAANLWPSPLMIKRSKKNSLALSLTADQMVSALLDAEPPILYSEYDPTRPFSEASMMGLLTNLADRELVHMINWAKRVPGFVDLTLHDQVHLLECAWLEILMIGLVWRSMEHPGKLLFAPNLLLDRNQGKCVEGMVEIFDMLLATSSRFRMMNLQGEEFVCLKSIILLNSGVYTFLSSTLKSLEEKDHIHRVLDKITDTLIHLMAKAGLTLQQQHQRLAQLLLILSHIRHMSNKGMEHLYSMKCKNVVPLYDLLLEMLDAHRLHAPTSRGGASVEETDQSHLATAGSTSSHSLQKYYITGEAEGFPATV
Protocol: A compound provided herein was assessed for its activity in degrading an ERα in MCF-7 cells via a western blot. The MCF7 cells were cultured at 37° C. in a humidified 5% C02 environment in MEM supplemented with 10% FBS with insulin. The cells were seeded in 12-well plates at a density of 300,000 cells per well in maintenance media. Cells were treated with the compound at predetermined concentrations (e.g., 1 nM, 10 nM, 100 nM, and 1 μM) for 6 h. The cells were then washed in PBS and the whole cells were lysed in a cell lysis buffer and incubated for 15 minutes on ice. Cell debris was removed by high-speed centrifugation and the cleared whole cell lysates were prepared for further analysis by a western blot. The whole cell protein extracts were separated on SDS-polyacrylamide gels, transferred to nitrocellulose membranes, and probed with primary antibodies, including anti-ERα antibody and GAPDH antibody for loading control. The membranes were subsequently washed and probed with secondary antibodies for chemiluminescence, followed by imaging on a BIORAD CHEMIDOC Imaging System. The results are summarized in Table 2, where “A” represents a percentage degradation value of no less than 50%; “B” represents a percentage degradation value of less than 50% and no less than 25%; “C” represents a percentage degradation value of less than 25% and no less than 10%; and “D” represents a percentage degradation value of less than 10%.

Row | SMILES | pIC50 (MCF7 cells) | ERα Protein Degradation 1 nM (ERα) | ERα Protein Degradation 10 nM (ERα) | ERα Protein Degradation 100 nM (ERα)
1 | Cc1c(-c2ccc(O)cc2)n(Cc2ccc(OCCCCN3CCN(C(=O)COc4ccc(C5CCC(=O)NC5=O)cc4)CC3)cc2)c2ccc(O)cc12 (stereo not shown) [Compound E24, 3-(4-(2-(4-(4-(4-((5-hydroxy-2-(4-hydroxyphenyl)-3-methyl-1H-indol-1-yl)-methyl)phenoxy)butyl)piperazin-1-yl)-2-oxoethoxy)phenyl)piperidine-2,6-dione] | 8.77 | D (a percentage degradation value of less than 10%) | D (a percentage degradation value of less than 10%) | D (a percentage degradation value of less than 10%)
2 | O=C1CCC(N2Cc3c(csc3C3CCN(CCCCCCOc4ccc([C@@H]5c6ccc(O)cc6CC[C@@H]5c5ccccc5)cc4)CC3)C2=O)C(=O)N1 (stereo partly drawn) [Compound A18, 3-(1-(1-(6-(4-((1R,2S)-6-Hydroxy-2-phenyl-1,2,3,4-tetrahydronaphthalen-1-yl)-phenoxy)hexyl)piperidin-4-yl)-4-oxo-4H-thieno[3,4-c]pyrrol-5(6H)-yl)piperidine-2,6-dione] | 9.55 | – | – | –
3 | CC1(Cc2ccc(OCCCCN3CCN(C(=O)COc4ccc5c(c4)CN(C4CCC(=O)NC4=O)C5=O)CC3)cc2)C(c2ccc(O)cc2)=Nc2ccc(O)cc21 (stereo not shown) [Compound D3, 3-(5-(2-(4-(4-(4-((5-Hydroxy-2-(4-hydroxyphenyl)-3-methyl-3H-indol-3-yl)-methyl)phenoxy)butyl)piperazin-1-yl)-2-oxoethoxy)-1-oxoisoindolin-2-yl)piperidine-2,6-dione] | 6.24 | D (a percentage degradation value of less than 10%) | D (a percentage degradation value of less than 10%) | D (a percentage degradation value of less than 10%)
4 | Cn1nc([C@H]2CCC(=O)NC2=O)c2ccc(OCC(=O)N3CCN(CCCCOc4ccc([C@@H]5c6ccc(O)cc6CC[C@@H]5c5ccccc5)cc4)CC3)cc21 [Compound B26, (R)-3-(6-(2-(4-(4-(4-((1R,2S)-6-Hydroxy-2-phenyl-1,2,3,4-tetrahydronaphthalen-1-yl)phenoxy)butyl)piperazin-1-yl)-2-oxoethoxy)-1-methyl-1H-indazol-3-yl)piperidine-2,6-dione] | 9.89 | – | – | –
5 | Cc1c(-c2ccc(O)cc2)n(Cc2ccc(N3CCC(CN4CCN(C(=O)COc5ccc6c(C7CCC(=O)NC7=O)nn(C)c6c5)CC4)CC3)cc2)c2ccc(O)cc12 (stereo not shown) [Compound E15, 3-(6-(2-(4-((1-(4-((5-hydroxy-2-(4-hydroxyphenyl)-3-methyl-1H-indol-1-yl)-methyl)phenyl)piperidin-4-yl)methyl)piperazin-1-yl)-2-oxoethoxy)-1-methyl-1H-indazol-3-yl)-piperidine-2,6-dione] | 9.57 | – | – | –
6 | O=C1CCC(N2Cc3c(cc(F)cc3C3CCN(CCCCOc4ccc([C@H]5c6ccc(O)cc6CC[C@H]5c5ccccc5)cc4)CC3)C2=O)C(=O)N1 (stereo partly drawn) [Compound A12, 3-(6-Fluoro-4-(1-(4-(4-((1S,2R)-6-hydroxy-2-phenyl-1,2,3,4-tetrahydro-naphthalen-1-yl)phenoxy)butyl)piperidin-4-yl)-1-oxoisoindolin-2-yl)piperidine-2,6-dione] | – | C (a percentage degradation value of less than 25% and no less than 10%) | C (a percentage degradation value of less than 25% and no less than 10%) | C (a percentage degradation value of less than 25% and no less than 10%)
7 | CC1(Cc2ccc(OCCCCN3CCN(c4ccc5c(c4)CN(C4CCC(=O)NC4=O)C5=O)CC3)cc2)C(c2ccc(O)cc2)=Nc2ccc(O)cc21 (stereo not shown) [Compound D2, 3-(5-(4-(4-(4-((5-Hydroxy-2-(4-hydroxyphenyl)-3-methyl-3H-indol-3-yl)-methyl)phenoxy)butyl)piperazin-1-yl)-1-oxoisoindolin-2-yl)piperidine-2,6-dione] | – | D (a percentage degradation value of less than 10%) | D (a percentage degradation value of less than 10%) | D (a percentage degradation value of less than 10%)
8 | O=C1CCC(N2Cc3cc(C4CCN(CCCCOc5ccc([C@H]6c7ccc(O)cc7CC[C@H]6c6ccccc6)cc5)CC4)c(F)cc3C2=O)C(=O)N1 (stereo partly drawn) [Compound A13, 3-(6-Fluoro-5-(1-(4-(4-((1S,2R)-6-hydroxy-2-phenyl-1,2,3,4-tetrahydro-naphthalen-1-yl)phenoxy)butyl)piperidin-4-yl)-1-oxoisoindolin-2-yl)piperidine-2,6-dione] | – | C (a percentage degradation value of less than 25% and no less than 10%) | B (a percentage degradation value of less than 50% and no less than 25%) | C (a percentage degradation value of less than 25% and no less than 10%)
9 | CC1(Cc2ccc(OCCCCN3CCN(C(=O)COc4ccc(N5CCC(=O)NC5=O)cc4)CC3)cc2)C(c2ccc(O)cc2)=Nc2ccc(O)cc21 (stereo not shown) [Compound D9, 1-(4-(2-(4-(4-(4-((5-Hydroxy-2-(4-hydroxyphenyl)-3-methyl-3H-indol-3-yl)-methyl)phenoxy)butyl)piperazin-1-yl)-2-oxoethoxy)phenyl)dihydropyrimidine-2,4(1H,3H)-dione] | – | D (a percentage degradation value of less than 10%) | D (a percentage degradation value of less than 10%) | D (a percentage degradation value of less than 10%)
10 | Cc1c(-c2ccc(O)cc2)n(Cc2ccc(N3CCC(CCN4CCN(c5ccc6c(C7CCC(=O)NC7=O)nn(C)c6c5)CC4)CC3)cc2)c2ccc(O)cc12 (stereo not shown) [Compound E18, 3-(6-(4-(2-(1-(4-((5-Hydroxy-2-(4-hydroxyphenyl)-3-methyl-1H-indol-1-yl)-methyl)phenyl)piperidin-4-yl)ethyl)piperazin-1-yl)-1-methyl-1H-indazol-3-yl)piperidine-2,6-dione] | 9.44 | – | – | –
11 | Cc1c(-c2ccc(O)cc2)n(Cc2ccc(N3CCC(CN4CCN(c5ccc6c(C7CCC(=O)NC7=O)nn(C)c6c5)CC4)CC3)cc2)c2ccc(O)cc12 (stereo not shown) [Compound E17, 3-(6-(4-((1-(4-((5-Hydroxy-2-(4-hydroxyphenyl)-3-methyl-1H-indol-1-yl)-methyl)phenyl)piperidin-4-yl)methyl)piperazin-1-yl)-1-methyl-1H-indazol-3-yl)piperidine-2,6-dione] | 9.10 | – | – | –
12 | CC1(Cc2ccc(OCCCCN3CCN(C(=O)COc4cccc5c4CN(C4CCC(=O)NC4=O)C5=O)CC3)cc2)C(c2ccc(O)cc2)=Nc2ccc(O)cc21 (stereo not shown) [Compound D1, 3-(4-(2-(4-(4-(4-((5-hydroxy-2-(4-hydroxyphenyl)-3-methyl-3H-indol-3-yl)-methyl)phenoxy)butyl)piperazin-1-yl)-2-oxoethoxy)-1-oxoisoindolin-2-yl)piperidine-2,6-dione] | – | D (a percentage degradation value of less than 10%) | D (a percentage degradation value of less than 10%) | D (a percentage degradation value of less than 10%)
